From patent US20070043076A1, “Substituted 2-arylmethylene-n-aryl-n'aryl-malonamides and analogs as activators of caspases and inducers of apoptosis” (priority 2003, published 2007)

Assays:
T-47D [1] = test: Inhibition of cell proliferation (GI50, CellTiter 96 AQueous One) in T-47D cells; format: cell-based; settings: Homo sapiens, T47D, 48 h incubation, read-out: GI50 (dose for 50% inhibition of cell proliferation)
Experimental: (§1) T-47D and DLD-1 cells were grown and harvested as in Example 105. An aliquot of 90 μL of cells (2.2×10^4 cells/mL) was added to a well of a 96-well microtiter plate containing 10 μl of a 10% DMSO in RPMI-1640 media solution containing 1 nM to 100 μM of N,N′-bis-(3-trifluoromethyl-phenyl)-2-(4-isopropyl-benzylidene)-malonamide (0.1 nM to 10 μM final). An aliquot of 90 μL of cells was added to a well of a 96-well microtiter plate containing 10 μL of a 10% DMSO in RPMI-1640 media solution without compound as the control sample for maximal cell proliferation (AMax). The samples were mixed by agitation and then incubated at 37° C. for 48 h in a 5% CO2-95% humidity incubator. After incubation, the samples were removed from the incubator and 20 μL of CellTiter 96 AQUEOUS One Solution Cell Proliferation™ reagent (Promega) was added. The samples were mixed by agitation and incubated at 37° C. for 2-4 h in a 5% CO2-95% humidity incubator. Using an absorbance plate reader (Model 1420 Wallac Instruments), an initial reading (T=0) was made approximately 1-2 min after addition of the solution, employing absorbance at 490 nm. This determines the possible background absorbance of the test compounds. No absorbance for N,N′-bis-(3-trifluoromethyl-phenyl)-2-(4-isopropyl-benzylidene)-malonamide was found at 490 nm. After the 2-4 h incubation, the samples were read for absorbance as above (ATest).
(§2) Baseline for GI50 (dose for 50% inhibition of cell proliferation) of initial cell numbers were determined by adding an aliquot of 90 μL of cells or 90 μL of media, respectively, to wells of a 96-well microtiter plate containing 10 μL of a 10% DMSO in RPMI-1640 media solution. The samples were mixed by agitation and then incubated at 37° C. for 0.5 h in a 5% CO2-95% humidity incubator. After incubation, the samples were removed from the incubator and 20 μL of CellTiter 96 AQUEOUS One Solution Cell Proliferation™ reagent (Promega) was added. The samples were mixed by agitation and incubated at 37° C. for 2-4 h in a 5% CO2-95% humidity incubator. Absorbance was read as above, (AStart) defining absorbance for initial cell number used as baseline in GI50 determinations.
(§3) GI50 (dose for 50% inhibition of cell proliferation) is the concentration where [(ATest−AStart)/(AMax−AStart)]=0.5.

DLD-1 = test: Inhibition of cell proliferation (GI50, CellTiter 96 AQueous One) in DLD-1 cells; format: cell-based; settings: Homo sapiens, 48 h incubation, read-out: GI50 (dose for 50% inhibition of cell proliferation)
Experimental: as §1, §2, §3

Jurkat cells = test: Drug induced apoptosis in Jurkat cells (propidium iodide flow cytometry); format: cell-based; settings: 24 h
Experimental: FIGS. 1A-C are graphs showing drug induced apoptosis in Jurkat cells. FIG. 1A: control cells (DMSO treated) showing most of the cells in G1 (M2). FIG. 1B: cells treated with 0.5 μM of N,N′-bis-(3-trifluoromethyl-phenyl)-2-(4-isopropyl-benzylidene)-malonamide for 24 h showing 50% of the cells in M1 (subdiploid apoptotic cells). FIG. 1C: cells treated with 1 μM of N,N′-bis-(3-trifluoromethyl-phenyl)-2-(4-isopropyl-benzylidene)-malonamide for 24 h showing 77% of the cells in M1 (subdiploid apoptotic cells).
(§4) Jurkat cells were incubated with N,N′-bis-(3-trifluoromethyl-phenyl)-2-(4-isopropyl-benzylidene)-malonamide (0.5 μM and 1 μM) for 24 h under normal growth conditions; control cultures were treated with DMSO vehicle. Cells were harvested at 1200 rpm and washed twice with 5 mM EDTA/PBS. Cells were then resuspended in 300 μl EDTA/PBS and […] of 100% ethanol, vortexed and incubated at room temperature for 1 h. Samples were spun down at 12000 rpm for 5 min and the supernatant was removed. A solution containing 100 μg/ml of propidium iodide and 1 mg/ml of RNAse A (fresh) was added to the samples and incubated for 1 h at room temperature. Samples were then transferred to 12×75 mm polystyrene tubes and analysed on a flow cytometer. All flow cytometry analyses were performed on FACScalibur (Becton Dickinson) using Cell Quest analysis software.

T47D cells = test: Drug induced apoptosis in T47D cells (propidium iodide flow cytometry); format: cell-based, Human; settings: 1.7 μM, 24 h
Experimental: FIGS. 2A-B are graphs showing drug induced apoptosis in T47D cells. FIG. 2A: control cells (DMSO treated) showing most of the cells in G1 (M2). FIG. 2B: cells treated with 1.7 μM of N,N′-bis-(3-trifluoromethyl-phenyl)-2-(4-isopropyl-benzylidene)-malonamide for 24 h showing 88% of the cells in M1 (subdiploid apoptotic cells).
as §4
T47D breast cancer cell line was maintained and harvested as described in Example 105. […] Cells were harvested and treated with propidium iodide and analysed on a flow cytometer as described in Example 107.

ZR-75-1 = test: Caspase cascade activation (Ac-DEVD-R110 fluorogenic substrate) in ZR-75-1 cells; format: cell-based, Human; settings: 24 h incubation
Experimental: (§5) Human breast cancer cell lines T-47D and ZR-75-1 were grown according to media component mixtures designated by American Type Culture Collection +10% FCS (Invitrogen Corporation), in a 5% CO2-95% humidity incubator at 37° C. T-47D and ZR-75-1 cells were maintained at a cell density between 30 and 80% confluency and for HL-60 at a cell density of 0.1 to 0.6×10^6 cells/mL. Cells were harvested at 600×g and resuspended at 0.65×10^6 cells/mL into appropriate media +10% FCS. An aliquot of 45 μL of cells was added to a well of a 96-well microtiter plate containing 5 μL of a 10% DMSO in RPMI-1640 media solution containing 1.6 to 100 μM of N,N′-bis-(3-trifluoromethyl-phenyl)-2-(4-isopropyl-benzylidene)-malonamide or other test compound (0.16 to 10 μM final). An aliquot of 45 μL of cells was added to a well of a 96-well microtiter plate containing 5 μL of a 10% DMSO in RPMI-1640 media solution without test compound as the control sample. The samples were mixed by agitation and then incubated at 37° C. for 24 h in a 5% CO2-95% humidity incubator. After incubation, the samples were removed from the incubator and […] of a solution containing 20 μM of N-(Ac-DEVD)-N′-ethoxycarbonyl-R110 fluorogenic substrate (SEQ ID NO:1) (Cytovia, Inc.; U.S. Pat. No. 6,335,429), 20% sucrose (Sigma), 20 mM DTT (Sigma), 200 mM NaCl (Sigma), 40 mM Na PIPES buffer pH 7.2 (Sigma), and 500 μg/mL lysolecithin (Calbiochem) was added. The samples were mixed by agitation and incubated at room temperature. Using a fluorescent plate reader (Model 1420 Wallac Instruments), an initial reading (T=0) was made approximately 1-2 min after addition of the substrate solution, employing excitation at 485 nm and emission at 530 nm, to determine the background fluorescence of the control sample. After approximately 3 h of incubation, the samples were read for fluorescence as above (T=3 h).
(§6) The relative Fluorescence Unit values (RFU) were used to calculate the sample readings as follows: RFU(T=3h)−Control RFU(T=0)=Net RFU(T=3h)
(§7) The activity of caspase cascade activation was determined by the ratio of the net RFU value for N,N′-bis-(3-trifluoromethyl-phenyl)-2-(4-isopropyl-benzylidene)-malonamide to that of control samples. The EC50 (nM) was determined by a sigmoidal dose-response calculation (Prism 2.0, GraphPad Software Inc.).

T-47D [2] = test: Caspase cascade activation (Ac-DEVD-R110 fluorogenic substrate) in T-47D cells; format: cell-based, Human; settings: 24 h incubation
Experimental: as §5, §6, §7

[3] = ratio of net RFU to that of control samples

## CC(C)c1ccc(C=C(C(=O)Nc2cccc(C(F)(F)F)c2)C(=O)Nc2cccc(C(F)(F)F)c2)cc1 [Example 3, N,N′-Bis-(3-trifluoromethyl-phenyl)-2-(4-isopropyl-benzylidene)-malonamide]
T-47D [1]
  GI50: 180 nM
DLD-1
  GI50: 200 nM
Jurkat cells; 0.5 μM and 1 μM
  induction of apoptosis (in words): induces massive apoptosis
Jurkat cells; 0.5 μM
  cells in M1 (subdiploid apoptotic cells): 50%
Jurkat cells; 1 μM
  cells in M1 (subdiploid apoptotic cells): 77%
T47D cells
  cells in M1 (subdiploid apoptotic cells): 88%
  induction of apoptosis (in words): induces massive apoptosis
ZR-75-1; [3]
  Caspase Activity Ratio: 17
ZR-75-1; Homo sapiens, 0.16 to 10 μM final, read-out: Caspase potency EC50
  EC50: 1400 nM
T-47D [2]; [3]
  Caspase Activity Ratio: 15
T-47D [2]; Homo sapiens, T47D, 0.16 to 10 μM final, read-out: Caspase potency EC50
  EC50: 867 nM
